Results from publication PMC6931124, “NPY1R-targeted peptide-mediated delivery of a dual PPARα/γ agonist to adipocytes enhances adipogenesis and prevents diabetes progression” (Molecular Metabolism, 2019).

Experiments:
[1] = Ketone bodies; type: in vivo; settings: db/db mice, 2.5 μM/kg/day, 8 days; n = 5
Protocol: (§1) All of the experiments were performed according to the animal ethical laws of the state Saxony, Germany, and were approved by the local animal ethics review board (Landesdirektion Sachsen, Leipzig, Germany). Female db/db mice 12–15 weeks of age were purchased from Taconic (Denmark) and housed in groups of 5 in temperature- and humidity-controlled facilities in a 12 h:12 h light–dark cycle and had free access to tap water and food (regular chow, Sniff, Soest, Germany). Three out of seven groups served as controls (N = 15, see Table 1). The 5 db/db mice were untreated and 10 db/db mice were vehicle treated either orally or intraperitoneally (i.p.). […]
(§2) All of the mice were monitored for 9 days during the treatment period. Body weight, food intake, and water uptake were recorded daily and body composition (lean body mass and whole body fat mass) was recorded at the beginning, middle, and end of the study in the conscious mice using an EchoMRI system (Echo Medical Systems, Houston, TX, USA). At the beginning and end of the treatment period, the HbA1c levels were determined from 5 μl of whole venous blood samples using an automated chemical analyzer at the Institute of Laboratory Medicine and Clinical Chemistry and beta-ketone using an automated glucose monitor (FreeStyle Precision H, Abbott GmbH, Ludwigshafen, Germany). […]

[2] = set-up: method as in Ljung et al. [74]; settings: ref Ljung et al. [74]; cited from earlier work
Source text: In the present study, we used db/db mice to evaluate the anti-diabetic potency of the peptide conjugate, as these mice are known to develop severe insulin resistance and hypertriglyceridemia.

[3] = tested on: obese Zucker rats; settings: free systemically administered tesa; ref [43]; cited from earlier work
[4] = tested on: db/db mice; settings: ref Cha et al. [93]; cited from earlier work
Source text: To strengthen this finding, we examined the expression of the PPARγ-responsive genes adiponectin, Fabp4, and Cidec [[71], [72], [73], [74],[88], [89], [90], [91]]. Adiponectin may mediate the beneficial effects of PPARγ agonists for the treatment of diabetes, as it is an insulin-sensitizing adipokine that affects hepatic glucose output and decre ...

[5] = Plasma free fatty acids; type: in vivo; settings: db/db mice, 2.5 μM/kg/day, 8 days; n = 5
Protocol: as §1, with “(i.p.). One additional group (n = 5) of lean C57BL/6NTac mice was used as a metabolically healthy control group.” for “(i.p.).”
(§3) Serum insulin (mouse insulin ELISA, Mercodia, Uppsala, Sweden), adiponectin (mouse adiponectin ELISA, AdipoGen, San Diego, CA, USA), leptin (mouse leptin ELISA, Crystal Chem, Downers Grove, IL, USA), and Mcp-1 (mouse/rat CCL2/JE/Mcp-1 Quantikine ELISA, R&D Systems, Minneapolis, MN, USA) levels were analyzed via ELISA according to the manufacturer's instructions. Serum concentrations of TG, FFA, and cholesterol were measured by an automatic chemical analyzer at the Institute of Laboratory Medicine and Clinical Chemistry.

[6] = Rectal body temperature; type: in vivo; settings: db/db mice, 2.5 μM/kg/day, 8 days
Protocol: as §1, §2

[7] = tested on: 3T3-L1 preadipocytes; assay: AdipoRed adipogenesis assay, 3T3-L1; type: cell-based, murine; settings: 24 h; tesa 10/25/100 μM, tesa-NPY 100 μM; AdipoRed fluorescence, DMSO = 100%; n = 3 in quadruplicate
Protocol: 3T3-L1 or SGBS cells were seeded into 96-well plates and grown to complete confluency (set as day 0). On day 2 of confluence, the 3T3-L1 cells were differentiated by DMEM High Glucose Medium supplemented with 10% (v/v) not-heat inactivated FCS, 0.5 mM IBMX, 167 nM human insulin, and 1 μM dexamethasone (differentiation medium). On day 4, the medium was replaced by insulin medium (DMEM High Glucose Medium, 10% not-heat inactivated FCS, and 167 nM human insulin). On day 6, the medium was changed to standard culture medium and changed every other day until full differentiation was achieved (on day 8). The SGBS cells were differentiated as previously described. […] On day 4, the medium was replaced by 3FC medium (DMEM High Glucose Medium and Hams F12 (1:1 (v/v))) without FCS and supplemented with 0.01 mg human apo-transferrin, 20 nM human insulin, triiodo-L-thyronine, and 100 nM hydrocortisone. The medium was changed every second day until full differentiation was achieved (day 10). […]
(A, B) Cells were differentiated and stimulated according to the protocol depicted for 3T3-L1 (A) and for SGBS (B). […] (E,F) Expression of adipocyte-enriched genes in 3T3-L1 (E) or SGBS (F) adipocytes analyzed by qPCR. […] Statistical significances refer to DMSO-treated cells and were determined by one-way analysis of variance (ANOVA) followed by Dunnett's multiple comparison test, *≤0.05, **p ≤ 0.01, ***p ≤ 0.001.

[8] = Serum leptin; type: in vivo; settings: db/db mice, 2.5 μmol/kg/day, 8 days; ELISA; n = 5
Protocol: as §1, with “(i.p.). One additional group (n = 5) of lean C57BL/6NTac mice was used as a metabolically healthy control group.” for “(i.p.).”
as §3

[9] = Serum Mcp-1; type: in vivo; settings: db/db mice, 2.5 μmol/kg/day, 8 days; ELISA; n = 5
Protocol: as §1, with “(i.p.). One additional group (n = 5) of lean C57BL/6NTac mice was used as a metabolically healthy control group.” for “(i.p.).”
as §3

[10] = Plasma triglycerides; type: in vivo; settings: db/db mice, 2.5 μmol/kg/day, 8 days; n = 5
Protocol: as §1, with “(i.p.). One additional group (n = 5) of lean C57BL/6NTac mice was used as a metabolically healthy control group.” for “(i.p.).”
as §3

Structure (SMILES): CCO[C@@H](Cc1ccc(OCCc2ccc(OS(C)(=O)=O)cc2)cc1)C(=O)O [tesa, tesaglitazar]
- ketone bodies [1]: normalization of the plasma concentration
- weight gain in treated animals [2]: does not lead to weight gain in treated animals
- insulin sensitivity in obese Zucker rats [3]: restore insulin sensitivity in obese Zucker rats
- adiponectin mRNA expression and plasma levels [4]: induces increased adiponectin mRNA expression and plasma levels in db/db mice
- free fatty acids (FFA) [5]: normalization
- body temperature, in words [6]: normalized
- adipogenesis (triglyceride content), 3T3-L1 [7]: enhanced adipogenesis in both cell lines
- serum leptin concentration [8]: no significant effect
- Mcp-1 levels [9]: no significant effect
- triglycerides [10]: normalization
